Laboratory results as given in US10508085B2, “Compounds and methods for IDO and TDO modulation, and indications therefor” (Plexxikon Inc., priority 2016, dated 2019).

Experiments:
[1] = target: T1, Human Tryptophan 2,3-dioxygenase (TDO) (Homo sapiens, UniProt P48775); assay: Human TDO enzymatic assay (kynurenine level); assay type: biochemical; settings: 1 nM TDO, 350 μM L-Trp; geometric mean; read-out: TDO GMean: IC50 (μM) (Biochemical Assay)
T1 construct: His tag (N); made in house; host or cells: E. coli
Outline: (§1)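 IDO conditions: 6 nM His-IDO, 10 μM L-Trp, 5 μM methylene blue, 20 min, RT. TDO conditions: 1 nM His-TDO, 350 μM L-Trp, 0.4 μM methylene blue, 70 min, RT. Both used pH 6.5 phosphate plus ascorbate/catalase, TCA stop at 50° C, kynurenine readout, nonlinear-regression IC50.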

[2] = target: T2, human TDO (TDO-expressing HEK293 cells) (Homo sapiens, UniProt P48775); assay: Cell based kynurenine assay, TDO-expressing HEK293 cell clones; settings: TDO-expressing HEK293 cells, 24 hours incubation; geometric mean; read-out: HEK293 TDO Kynurenine GMean IC50 (μM) (Cellular Assay)
T2 construct: expressed in transfected cells
Protocol: Determine Inhibitor Activity Against IDO or TDO in Cell Based Kynurenine Assay
IDO1-expressing or TDO-expressing HEK293 cell clones are generated upon stable transfection of plasmids expressing human IDO or human TDO under the control of CMV promoter. Cells are selected in DMEM media supplemented with 10% fetal bovine serum and 1 mg/ml G418 at 37° C. in a humidified incubator supplied with 5% CO2. The assays are performed as follows.
Cells were seeded in a 96 well plate in 50 μL of culture media at a density of 2.5×10^4 per well. Serial dilutions of compounds (in total volume of 50 μL culture media) are added into cells. 4 wells containing 0.2% DMSO treated cells serve as high controls and 4 wells containing media only with 0.2% DMSO serve as low controls. After 24 hours of incubation, the supernatant was transferred to a 384 well reaction plate and the kynurenine level determined. The percentage inhibition at individual concentrations relative to high and low controls is calculated. The data is analyzed by using nonlinear regression to generate IC50 values.

[3] = target: T3, Human Indoleamine 2,3-dioxygenase (IDO) (Homo sapiens, UniProt P14902); assay: Human IDO enzymatic assay (kynurenine level); assay type: biochemical; settings: 6 nM IDO, 10 μM L-Trp; geometric mean; read-out: IDO1 GMean: IC50 (μM) (Biochemical Assay)
T3 construct: His tag (N); made in house; host or cells: E. coli
Outline: as §1

[4] = target: T4, human IDO (IDO1-expressing HEK293 cells) (Homo sapiens, UniProt P14902); assay: Cell based kynurenine assay, IDO1-expressing HEK293 cell clones; settings: IDO1-expressing HEK293 cells, 24 hours incubation; geometric mean; read-out: HEK293 IDO1 Kynurenine GMean IC50 (μM) (Cellular Assay)
T4 construct: expressed in transfected cells
Outline: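 IC50 values come from nonlinear regression of kynurenine reduction in supernatants of human IDO1- or TDO-expressing HEK293 cells incubated 24 h with serially diluted compounds, normalised to cell and media-only controls containing 0.2% DMSO.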

T2 sequence (P48775 whole entry): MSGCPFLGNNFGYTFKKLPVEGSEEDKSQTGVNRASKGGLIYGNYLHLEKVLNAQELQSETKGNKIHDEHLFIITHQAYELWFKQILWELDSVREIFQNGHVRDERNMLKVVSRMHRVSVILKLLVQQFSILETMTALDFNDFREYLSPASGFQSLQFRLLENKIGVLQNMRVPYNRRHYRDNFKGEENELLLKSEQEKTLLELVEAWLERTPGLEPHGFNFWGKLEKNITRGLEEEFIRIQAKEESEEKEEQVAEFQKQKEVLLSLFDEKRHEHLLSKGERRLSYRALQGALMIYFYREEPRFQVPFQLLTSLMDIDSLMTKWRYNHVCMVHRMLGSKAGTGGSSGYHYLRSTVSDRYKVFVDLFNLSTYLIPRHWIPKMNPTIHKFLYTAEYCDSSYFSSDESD
T1 sequence (P48775 whole entry): as above
T4 sequence (P14902 whole entry): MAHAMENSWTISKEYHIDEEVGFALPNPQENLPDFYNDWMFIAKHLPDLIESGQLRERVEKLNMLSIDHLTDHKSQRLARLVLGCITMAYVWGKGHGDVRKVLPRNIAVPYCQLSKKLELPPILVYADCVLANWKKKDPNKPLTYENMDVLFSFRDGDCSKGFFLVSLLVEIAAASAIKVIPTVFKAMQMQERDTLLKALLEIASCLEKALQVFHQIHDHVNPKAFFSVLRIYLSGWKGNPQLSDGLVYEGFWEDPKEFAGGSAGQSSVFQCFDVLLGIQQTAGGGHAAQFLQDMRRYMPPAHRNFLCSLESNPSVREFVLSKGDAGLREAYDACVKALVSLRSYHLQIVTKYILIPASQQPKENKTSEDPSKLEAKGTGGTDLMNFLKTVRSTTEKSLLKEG
T3 sequence (P14902 whole entry): as above

| IC50 [1] | IC50 [2] | IC50 [3] | IC50 [4] | SMILES |
| --- | --- | --- | --- | --- |
| 0.0001 to 10 µM | > 10 µM | 0.0001 to 10 µM | 0.0001 to 10 µM | OC(c1cccc2cncn12)C1CC2CCC1C2 (stereo not drawn) [Compound P-0059, bicyclo[2.2.1]heptan-2-yl(imidazo[1,5-a]pyridin-5-yl)methanol] |
| 0.0001 to 10 µM | > 10 µM | 0.0001 to 10 µM | 0.0001 to 10 µM | OC(c1cccc2cncn12)C1CCCCC1 (stereo not drawn) [Compound P-0060, cyclohexyl(imidazo[1,5-a]pyridin-5-yl)methanol] |
| 0.0001 to 10 µM | > 10 µM | 0.0001 to 10 µM | 0.0001 to 10 µM | CC1(C(O)c2cccc3cncn23)CCCCC1 (stereo not drawn) [Compound P-0061, imidazo[1,5-a]pyridin-5-yl(1-methylcyclohexyl)methanol] |
| 0.0001 to 10 µM | > 10 µM | 0.0001 to 10 µM | > 10 µM | OC(c1cccc2cncn12)C1(F)CCC(F)(F)CC1 (stereo not drawn) [Compound P-0062, imidazo[1,5-a]pyridin-5-yl(1,4,4-trifluorocyclohexyl)methanol] |
| 0.0001 to 10 µM | > 10 µM | 0.0001 to 10 µM | > 10 µM | OC(c1cccc2cncn12)C1CCCCCCC1 (stereo not drawn) [Compound P-0063] |
| 10 to 100 µM | > 10 µM | 0.0001 to 10 µM | > 10 µM | OC(CCc1ccccc1)c1cccc2cncn12 (stereo not drawn) [Compound P-0074, 1-(imidazo[1,5-a]pyridin-5-yl)-3-phenylpropan-1-ol] |
| 0.0001 to 10 µM | > 10 µM | 10 to 100 µM | > 10 µM | CC(C)(C)OC(=O)N1CCC(C(O)c2cccc3cncn23)CC1 (stereo not drawn) [Compound P-0076, tert-butyl 4-(hydroxy(imidazo[1,5-a]pyridin-5-yl)methyl)piperidine-1-carboxylate] |
| 0.0001 to 10 µM | > 10 µM | 0.0001 to 10 µM | 0.0001 to 10 µM | OC(CC1CCCCC1)c1cccc2cncn12 (stereo not drawn) [Compound P-0079, 2-cyclohexyl-1-(imidazo[1,5-a]pyridin-5-yl)ethan-l-ol] |
| 0.0001 to 10 µM | > 10 µM | 0.0001 to 10 µM | > 10 µM | OC(c1cccc2cncn12)C1CCC1 (stereo not drawn) [Compound P-0080, cyclobutyl(imidazo[1,5-a]pyridin-5-yl)methanol] |
| 0.0001 to 10 µM | > 10 µM | 0.0001 to 10 µM | > 10 µM | OC(c1cccc2cncn12)C1CCC(F)(F)CC1 (stereo not drawn) [Compound P-0081, (4,4-difluorocyclohexyl)(imidazo[1,5-a]pyridin-5-yl)methanol] |
| 0.0001 to 10 µM | 0.0001 to 10 µM | 0.0001 to 10 µM | 0.0001 to 10 µM | CC1(C(O)c2cc(Br)cc3cncn23)CCCCC1 (stereo not drawn) [Compound P-0082, (7-bromoimidazo[1,5-a]pyridin-5-yl)(1-methylcyclohexyl)methanol] |
| 0.0001 to 10 µM | 0.0001 to 10 µM | 0.0001 to 10 µM | 0.0001 to 10 µM | CC1(C(O)c2cc(Cl)cc3cncn23)CCCCC1 (stereo not drawn) [Compound P-0083, (7-Chloroimidazo[1,5-a]pyridin-5-yl)(1-methylcyclohexyl)methanol] |
| 0.0001 to 10 µM | > 10 µM | 0.0001 to 10 µM | > 10 µM | OC(CC1CCOCC1)c1cccc2cncn12 (stereo not drawn) [Compound P-0084, 1-(imidazo[1,5-a]pyridin-5-yl)-2-(tetrahydro-2H-pyran-4-yl)ethan-l-ol] |
| 0.0001 to 10 µM | > 10 µM | 0.0001 to 10 µM | > 10 µM | CC(C)(C)OC(=O)N1CCC(CC(O)c2cccc3cncn23)CC1 (stereo not drawn) [Compound P-0085, tert-butyl 4-(2-hydroxy-2-(imidazo[1,5-a]pyridin-5-yl)ethyl)piperidine-l-carboxylate] |
| 0.0001 to 10 µM | 0.0001 to 10 µM | 0.0001 to 10 µM | 0.0001 to 10 µM | CC(C)(C1CCCCC1)C(O)c1cc(Cl)cc2cncn12 (stereo not drawn) [Compound P-0086, 1-(7-chloroimidazo[1,5-a]pyridin-5-yl)-2-cyclohexyl-2-methylpropan-1-ol] |
